From patent US20140234868A1, “USE FOR GLYCOLIPOPROTEIN GINTONIN, ISOLATED AND IDENTIFIED FROM GINSENG, AS A NATURAL MEDICAL-PLANT DERIVED LIGAND” (KONKUK UNIVERSITY INDUSTRIAL COOPERATION CORP., priority 2011, published 2014)

Assays:
mice [1] = assay: Passive avoidance test, scopolamine-caused long-term memory impairment; format: in vivo, mouse; settings: scopolamine alone (0.9 mg/kg, i.p.); test session 24 h after learning
Description: ICR male mice (25-28 g), purchased from Oriental Bio (Seoul, Korea), were bred according to the guideline of the Institutional Animal Care and Use Committee of Konkuk University, and subjected to passive avoidance test to examine memory maintenance impairment and the protection of gintonin against memory impairment according to the method of Yang et al. (Yang et al., Biol Pharm Bull 32, 1710-1715, 2009).
A passive avoidance test was performed in a training chamber which was divided into two compartments (20×20×20 cm in size, each) separated by an automatically moving guillotine door (5×5 cm): one compartment was lighted while the other remained dark where metal rods installed in a lattice pattern on the bottom so as to deliver an electrical foot shock (Gemini Avoidance System, San Diego, USA).
For an acquisition trial, a mouse was first placed in the lighted compartment, facing away from the dark compartment and allowed to explore for 10 sec. After 10 sec, the guillotine door was opened and the mouse was allowed to explore freely. When the mouse entered the dark compartment with all four paws according to its habit, the guillotine door was closed, and a footshock (0.5 mA, 3 sec duration) was delivered. The latency time to enter the dark compartment was recorded (from the time the door was lifted). 120 min before experimentation, gintonin (25, 50, 100 mg/kg, p.o) was administered while tacrine (10 mg/kg, p.o) was used as a positive control. Memory impairment was induced by injecting scopolamine (0.9 mg/kg, i.p.) 30 min after gintonin or tacrine administration (Araujo et al., Prog Neuropsycopharmcol Biol Psychiatry 29, 411-422, 2005). For a negative control, a physiological saline was used.
24 Hours after the learning session, an experiment was performed without injecting gintonin. The mouse was positioned again in the lighted compartment. After 10 sec of acclimation, the latency time to enter the dark compartment was recorded (from the time the door was lifted).

mice [2] = assay: Water maze test, scopolamine-caused spatial cognition impairment; format: in vivo, mouse; settings: scopolamine alone (0.9 mg/kg i.p.)
Description: The Moths water maze set up contained a round water pool (45 cm deep with a diameter of 90 cm) filled with milk-mixed water (22±1° C.) to a depth of 30 cm. It was placed in a dark, sound-shielded room in which various visual cues were established. A white platform (6 cm in diameter, 29 cm in height) was inside the pool, with the top thereof 1 cm below the water surface in the center of one quadrant of the maze
On day 1, the mice were trained to swim for 60 sec. Subsequently, the training was conducted four times a day for four consecutive days, with the platform inside the pool. When the mouse reached the platform, it was allowed to sit on the platform only for 10 sec. If the failed in reaching the platform within 60 sec, it was guided to reach the platform and stay for 10 sec thereon. Afterwards, the mouse was returned back to the home cage and allowed to dry its body under an IR lamp. The time interval between trials was 30 sec.
The time to reach the hidden platform was recorded in each trial using a video camera-based Ethovision System (Nodulus, Wageningen, the Netherlands).
For each training trial, the mouse was placed into the pool at one quadrant at positions which were different day by day. One day after the final training trial, the mouse was evaluated. In this regard, after the platform was removed, the mouse was allowed to swim for 60 sec in search for the platform, and the time to swim in the quadrant where the platform was located was recorded. Gintonin (25, 50, or 100 mg/kg, p.o.) in physiological saline was administered 1 hr before test, every day. Tacrine (10 mg/kg, p.o.) was used as a positive control. Memory impairment was induced by scopolamine (0.9 mg/kg i.p.) 30 min after gintonin administration. For a negative control, only physiological saline was administered.
An examination was made of simple spatial reasoning. To this end, while the mice were allowed to swim in the absence of the rescue platform in the pool, the time period during which the mice swam in the quadrant where the rescue platform had been located was recorded.

endogenous CaCC = assay: Endogenous Ca2+-activated channel (CaCC) activation in Xenopus oocytes; format: cell-based, Xenopus laevis; settings: Kil6425 10 μM; U73122 1 μM; 2-APB 100 μM; BAPTA 100 μM 3 h
BKCaK+ channels = assay: BKCa K+ channel activity in Xenopus oocytes, two-electrode voltage clamp; format: cell-based; settings: 2-APB 100 μM, BAPTA-AM, PMA 1 μM
Description: (§1) Xenopus laevis frogs were obtained from Xenopus I (Ann Arbor, Mich.). Their care and handling were in accordance with the highest standards of institutional guidelines. To isolate oocytes, the frogs were operated on under anesthesia with an aerated solution of 3-aminobenzoic acid ethyl ester. Oocytes were separated by treatment with collagenase and agitation for two hours in a Ca^2+-free medium containing 82.5 mM NaCl, 2 mM KCl, 1 mM MgCl2, 5 mM HEPES, 2.5 mM sodium pyruvate, 100 units/ml penicillin and 100 μg/ml streptomycin.
(§2) Stage V-VI oocytes were collected and stored in ND96 (96 mM NaCl, 2 mM KCl, 1 mM MgCl2, 1.8 mM CaCl2, and 5 mM HEPES, pH 7.4) supplemented with 50 μg/ml gentamicin. This oocyte containing solution was maintained at 18° C. with continuous gentle shaking while the ND96 medium was changed with a fresh one every day.
Two-electrode voltage-clamp recordings were obtained from individual oocytes placed in a small Plexiglas net chamber (5 ml). Electrophysiological experiments were performed using microelectrodes filled with 3 M KCl (resistance of 0.2-0.7 MΩ) and an Oocyte Clamp amplifier (OC-725C; Warner Instrument, CT, USA) to record BKc K^+ channel activity at room temperature (Choi et al., Mol Cells 31, 133-140, 2011). For physiological recordings of BKCaK^+ channel activity, oocytes were first perfused with a Cl^−- and Ca^2+-free solution (mM: 96 NaOH, 2 KOH, 8 Mg-gluconate, 5 HEPES, 5 EGTA, pH 7.4 with methanesulfonic acid) supplemented with 500 μM anthracene-9-carboxylic acid, a Cl^− channel blocker, to block endogenous Cl-channels (Lu et al., J. Biol. Chem. 265, 16190-16194.1990). Then, the oocytes were clamped at −80 mV holding potential, followed by step depolarization from the holding potential to +40 mV at regular intervals of […] for 400 ms to record outward currents.

LPA2 receptor = LPA2 receptor (Homo sapiens, UniProt Q9HBW0); assay: Intracellular free Ca2+ (Fura-2AM) in LPA2-expressing B103 cells; format: cell-based; set-up: host or cells: B103 rat neuroblastoma cells; settings: LPA2-expressing B103 cells
Text: LPA family receptors are endogenous to cells of most organs. B103 rat neuroblastoma cells, known as LPA receptor-null cells (Valentine et al., Biochim Biophys Acta 1780. 597-605) were transiently transfected with a plasmid (vector) carrying one of genes coding for LPA1(edg-2), LPA2(edg-4), LPA3(edg-7), LPA4, LPA5 and LPA6 receptors or a plasmid carrying none of them (empty vector). Two or three days after transfection, the cells are suspended, and made permeable. Then, the permeable cells are treated with Fura-2AM, a fluorescent dye binding to calcium, and then with gintonin, followed by spectrofluorephotometry to examine whether gintonin induces an increase in intracellular free Ca^2+ level.
(1) preparing large quantities of plasmids carrying respective LPA family receptor genes and an empty plasmid carrying none of them through amplification and purification (maxi-preparation); (2) verifying the expression of LPA receptors wherein B103 cells are transfected with haematoglutin (HA)-tagged LPA receptors, and then subjected to Western blotting analysis using an anti-HA primary antibody and a horseradish peroxidase (HRP)-conjugated secondary antibody to develop a color; (3) verifying the expression of LPA receptors wherein B1-3 cells are transfected with haematoglutin (HA)-tagged LPA receptors, and then subjected to confocal laser microscopy using an anti-HA antibody and a fluorescence dye Cy3-conjugated secondary antibody; (4) transfecting the empty plasmid and each of the plasmids carrying LPA family receptor genes into B103 cells; (5) treating the transfected B103 cells with trypsin (0.05% trypsin with EDTA, w/v) 2-3 days post-transfection, to give a cell suspension; (6) culturing the suspended B103 cells with Fura-2AM (2.5 μM); and (7) treating the suspended B103 cells with gintonin and quantifying a change in intracellular free Ca^2+ level in a cuvette by spectrofluorephotometry using Fura-2AM.
Human LPA (lysophosphatidic acid) receptor subtypes, orphan GPCRs (G protein coupled receptors) and plasmids carrying GPCRs were purchased from Missouri S&T resource Center (www.cDNA.org).
The transient transfection of LPA receptor subtypes was carried out with the aid of Lipofectamine 2000 of Invitrogen. A plasmid (10.8 μg) carrying each LPA receptor (LPA1, LPA2, LPA3, LPA4, LPA5, and LPA6) was transfected into B103 cells grown in 10-cm dishes, and incubated for 2 days prior for use in experiments.
In this Example, gintonin, or ginsenoside Rb1 or Rg1 was examined for its ability to induce a transient increase of [Ca^2+]i in Fura-2AM-loaded B103 cells which were transfected with LPA receptors and in Fura-2AM-loaded B103 cells which were not transfected with LPA receptors. […]

[3] = tested on: NMDA receptors (NR1 and NR2); assay: NMDA receptor activity in Xenopus oocytes, two-electrode voltage clamp; format: cell-based; settings: Kil6425 10 μM, 2-APB 100 μM, BAPTA 100 μM 3 h
Description: cDNAs of NMDA receptor subunits (NR1 and NR2) were employed (Zheng et al., J Neurosci. 17, 8676-8686, 1997). cDNAs (100 ng/40 nl) corresponding to respective NMDA receptor subunits (NR1 and NR2) were injected into animal or vegetal poles of oocytes by use of a […] (VWR Scientific, USA) and incubated for 4-5 days after injection (Zheng et al., J Neurosci. 17, 8676-8686, 1997).
as §1
as §2, with “changed to” for “changed with”
Two-electrode voltage-clamp recordings were obtained from individual oocytes placed in a small Plexiglas net chamber (5 ml). Electrophysiological experiments were performed using microelectrodes filled with 3 M KCl (resistance of 0.2-0.7 MΩ) and an Oocyte Clamp amplifier (OC-725C; Warner Instrument, Hamden, Conn.). For physiological recordings of NMDA receptor activity, oocytes were first perfused with Mg^2+-free ND96 (mM: 96 NaOH, 2 KOH, 0.3 CaCl2, 5 HEPES pH 7.6 with methanesulfonic acid). Then, the oocytes were clamped at −60 mV holding potential, followed by recoding NMDA currents (induced by administering […]) (Zheng et al., J Neurosci. 17, 8676-8686, 1997; Chang and Kuo, J Neurosci. 28, 1546-1556, 2008).

LPA2 receptor, sequence (Q9HBW0 whole entry): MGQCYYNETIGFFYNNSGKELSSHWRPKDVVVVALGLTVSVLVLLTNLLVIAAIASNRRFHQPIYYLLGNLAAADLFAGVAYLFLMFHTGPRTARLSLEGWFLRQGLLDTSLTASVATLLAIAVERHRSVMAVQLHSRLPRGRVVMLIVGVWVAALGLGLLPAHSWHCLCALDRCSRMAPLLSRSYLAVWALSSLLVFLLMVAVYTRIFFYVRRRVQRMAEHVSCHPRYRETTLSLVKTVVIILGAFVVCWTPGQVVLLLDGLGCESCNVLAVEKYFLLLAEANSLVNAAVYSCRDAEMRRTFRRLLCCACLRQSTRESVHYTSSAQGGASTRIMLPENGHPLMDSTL

| SMILES | latency time (mice [1]) | swimming time in the quadrant where the platform had been located (mice [2]) | effect on gintonin-induced CaCC activation (endogenous CaCC) | effect on gintonin-induced BKCaK+ channel activation (BKCaK+ channels; Kil6425 10 μM, U73122, U73343 1 μM) | effect on ginsenoside Rg3-induced BKCaK+ channel activity (BKCaK+ channels; U73122 1 μM) | effect on gintonin-induced intracellular calcium increase (LPA2 receptor) | effect on NMDA-induced inward current ([3]; U73122 1 μM) | effect on gintonin-induced NMDA receptor activation ([3]; gintonin 1 μg/ml, U73122, U73343 1 μM, genistein 10 μM, PP2, PP3 30 μM) |
| --- | --- | --- | --- | --- | --- | --- | --- | --- |
| CN1[C@@H]2C[C@@H](OC(=O)[C@H](CO)c3ccccc3)C[C@H]1[C@@H]1O[C@@H]12 [scopolamine, reference compound] | 23.07 ± 1.95 s | 13.47 ± 1.86 s |  |  |  |  |  |  |
| NCCOB(c1ccccc1)c1ccccc1 [2-APB] |  |  | suppressed gintonin-induced CaCC activation | blocked gintonin-induced BKCaK^+ channel activation | not blocked | blocked | did not block NMDA-induced inward current | blocked gintonin-induced NMDA receptor activation |
